According to the supplement of paper PMC10307832:

Columns and labels:
Experiment in all cases: relative viability (nuclei count vs DMSO), 5 days (fraction); higher = more cells survive
ABC-1 = tested on: ABC-1
Summary of the method: (§1)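 Lung cancer cell lines in 1536-well plates got either a single drug or a fixed anchor-drug dose together with five library-drug doses (not always all listed) in √10 steps, by pin tool, on the day after seeding. Nuclei were counted after 5 days, and relative viability is the treated-to-vehicle ratio of nuclei counts. Values are medians of duplicate plates.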

NCI-H2009 = tested on: NCI-H2009
Summary of the method: as §1

SK-MES-1 = tested on: SK-MES-1
Summary of the method: as §1

NCI-H1993 = tested on: NCI-H1993
Summary of the method: as §1

NCI-H596 = tested on: NCI-H596
Summary of the method: as §1

SK-LU-1 = tested on: SK-LU-1
Summary of the method: as §1

LK-2 = tested on: LK-2
Summary of the method: as §1

NCI-H2228 = tested on: NCI-H2228
Summary of the method: as §1

NCI-H2170 = tested on: NCI-H2170
Summary of the method: as §1

NCI-H1793 = tested on: NCI-H1793
Summary of the method: as §1

A-427 = tested on: A-427
Summary of the method: as §1

NCI-H1944 = tested on: NCI-H1944
Summary of the method: as §1

SW 1573 = tested on: SW 1573
Summary of the method: as §1

NCI-H727 = tested on: NCI-H727
Summary of the method: as §1

COR-L23 = tested on: COR-L23
Summary of the method: as §1

HARA = tested on: HARA
Summary of the method: as §1

HOP-62 = tested on: HOP-62
Summary of the method: as §1

SW 900 = tested on: SW 900
Summary of the method: as §1

NCI-H3122 = tested on: NCI-H3122
Summary of the method: as §1

EMC-BAC-2 = tested on: EMC-BAC-2
Summary of the method: as §1

PC-3 [JPC-3] = tested on: PC-3 [JPC-3]
Summary of the method: as §1

LXF-289 = tested on: LXF-289
Summary of the method: as §1

NC(=O)Nc1cc(-c2cccc(F)c2)sc1C(=O)N[C@H]1CCCNC1 [AZD7762] + COc1cc2c(Oc3ccc(NC(=O)C4(C(=O)Nc5ccc(F)cc5)CC4)cc3F)ccnc2cc1OCCCN1CCOCC1 [Foretinib] (partner 0.25 µM)
relative viability (ABC-1; first compound 0.01 µM): 1.22
relative viability (ABC-1; first compound 0.03162 µM): 1.23
relative viability (ABC-1; first compound 0.1 µM): 0.851
relative viability (ABC-1; first compound 0.3162 µM): 0.402
relative viability (ABC-1; first compound 1 µM): 0.212
relative viability (NCI-H2009; first compound 0.01 µM): 1.25
relative viability (NCI-H2009; first compound 0.03162 µM): 1.27
relative viability (NCI-H2009; first compound 0.1 µM): 1.27
relative viability (NCI-H2009; first compound 0.3162 µM): 1.13
relative viability (NCI-H2009; first compound 1 µM): 0.962
relative viability (SK-MES-1; first compound 0.01 µM): 0.83
relative viability (SK-MES-1; first compound 0.03162 µM): 0.973
relative viability (SK-MES-1; first compound 0.1 µM): 1.02
relative viability (SK-MES-1; first compound 0.3162 µM): 0.903
relative viability (SK-MES-1; first compound 1 µM): 0.528
relative viability (NCI-H1993; first compound 0.01 µM): 0.772
relative viability (NCI-H1993; first compound 0.03162 µM): 0.878
relative viability (NCI-H1993; first compound 0.1 µM): 0.801
relative viability (NCI-H1993; first compound 0.3162 µM): 0.821
relative viability (NCI-H1993; first compound 1 µM): 0.708
relative viability (NCI-H596; first compound 0.01 µM): 0.993
relative viability (NCI-H596; first compound 0.03162 µM): 1.04
relative viability (NCI-H596; first compound 0.1 µM): 1.01
relative viability (NCI-H596; first compound 0.3162 µM): 0.923
relative viability (NCI-H596; first compound 1 µM): 0.744
relative viability (SK-LU-1; first compound 0.01 µM): 1.01
relative viability (SK-LU-1; first compound 0.03162 µM): 0.737
relative viability (SK-LU-1; first compound 0.1 µM): 0.461
relative viability (SK-LU-1; first compound 0.3162 µM): 0.185
relative viability (SK-LU-1; first compound 1 µM): 0.145
relative viability (LK-2; first compound 0.01 µM): 1.38
relative viability (LK-2; first compound 0.03162 µM): 1.34
relative viability (LK-2; first compound 0.1 µM): 1.11
relative viability (LK-2; first compound 0.3162 µM): 0.864
relative viability (LK-2; first compound 1 µM): 0.722
relative viability (NCI-H2228; first compound 0.01 µM): 0.851
relative viability (NCI-H2228; first compound 0.03162 µM): 0.788
relative viability (NCI-H2228; first compound 0.1 µM): 0.825
relative viability (NCI-H2228; first compound 0.3162 µM): 0.828
relative viability (NCI-H2228; first compound 1 µM): 0.265
relative viability (NCI-H2170; first compound 0.01 µM): 0.925
relative viability (NCI-H2170; first compound 0.03162 µM): 1.06
relative viability (NCI-H2170; first compound 0.1 µM): 0.984
relative viability (NCI-H2170; first compound 0.3162 µM): 1.04
relative viability (NCI-H2170; first compound 1 µM): 1.13
relative viability (NCI-H1793; first compound 0.01 µM): 0.732
relative viability (NCI-H1793; first compound 0.03162 µM): 0.682
relative viability (NCI-H1793; first compound 0.1 µM): 0.595
relative viability (NCI-H1793; first compound 0.3162 µM): 0.8
relative viability (NCI-H1793; first compound 1 µM): 0.608
relative viability (A-427; first compound 0.01 µM): 1.08
relative viability (A-427; first compound 0.03162 µM): 0.976
relative viability (A-427; first compound 0.1 µM): 1.03
relative viability (A-427; first compound 0.3162 µM): 0.781
relative viability (A-427; first compound 1 µM): 0.755
relative viability (NCI-H1944; first compound 0.01 µM): 0.907
relative viability (NCI-H1944; first compound 0.03162 µM): 0.975
relative viability (NCI-H1944; first compound 0.1 µM): 1.06
relative viability (NCI-H1944; first compound 0.3162 µM): 1.08
relative viability (NCI-H1944; first compound 1 µM): 0.591
relative viability (SW 1573; first compound 0.01 µM): 0.845
relative viability (SW 1573; first compound 0.03162 µM): 0.866
relative viability (SW 1573; first compound 0.1 µM): 0.99
relative viability (SW 1573; first compound 0.3162 µM): 1.12
relative viability (SW 1573; first compound 1 µM): 1.02
relative viability (NCI-H727; first compound 0.01 µM): 0.989
relative viability (NCI-H727; first compound 0.03162 µM): 0.804
relative viability (NCI-H727; first compound 0.1 µM): 0.728
relative viability (NCI-H727; first compound 0.3162 µM): 0.889
relative viability (NCI-H727; first compound 1 µM): 0.466
relative viability (COR-L23; first compound 0.01 µM): 1.18
relative viability (COR-L23; first compound 0.03162 µM): 0.955
relative viability (COR-L23; first compound 0.1 µM): 1.08
relative viability (COR-L23; first compound 0.3162 µM): 0.842
relative viability (COR-L23; first compound 1 µM): 0.292
relative viability (HARA; first compound 0.01 µM): 0.888
relative viability (HARA; first compound 0.03162 µM): 0.932
relative viability (HARA; first compound 0.1 µM): 0.91
relative viability (HARA; first compound 0.3162 µM): 0.866
relative viability (HARA; first compound 1 µM): 0.197
relative viability (HOP-62; first compound 0.01 µM): 1.17
relative viability (HOP-62; first compound 0.03162 µM): 1.14
relative viability (HOP-62; first compound 0.1 µM): 1.23
relative viability (HOP-62; first compound 0.3162 µM): 1.1
relative viability (HOP-62; first compound 1 µM): 1.14
relative viability (SW 900; first compound 0.01 µM): 0.777
relative viability (SW 900; first compound 0.03162 µM): 0.84
relative viability (SW 900; first compound 0.1 µM): 1.29
relative viability (SW 900; first compound 0.3162 µM): 0.825
relative viability (SW 900; first compound 1 µM): 0.533
relative viability (NCI-H3122; first compound 0.01 µM): 0.911
relative viability (NCI-H3122; first compound 0.03162 µM): 0.905
relative viability (NCI-H3122; first compound 0.1 µM): 0.995
relative viability (NCI-H3122; first compound 0.3162 µM): 0.996
relative viability (NCI-H3122; first compound 1 µM): 0.996
relative viability (EMC-BAC-2; first compound 0.01 µM): 1.08
relative viability (EMC-BAC-2; first compound 0.03162 µM): 1
relative viability (EMC-BAC-2; first compound 0.1 µM): 1.08
relative viability (EMC-BAC-2; first compound 0.3162 µM): 1.04
relative viability (EMC-BAC-2; first compound 1 µM): 0.89
relative viability (PC-3 [JPC-3]; first compound 0.01 µM): 1.06
relative viability (PC-3 [JPC-3]; first compound 0.03162 µM): 1.06
relative viability (PC-3 [JPC-3]; first compound 0.1 µM): 1.04
relative viability (PC-3 [JPC-3]; first compound 0.3162 µM): 1.13
relative viability (PC-3 [JPC-3]; first compound 1 µM): 1.02
relative viability (LXF-289; first compound 0.01 µM): 0.991
relative viability (LXF-289; first compound 0.03162 µM): 1.05
relative viability (LXF-289; first compound 0.1 µM): 1.05
relative viability (LXF-289; first compound 0.3162 µM): 1.01
relative viability (LXF-289; first compound 1 µM): 1.08
